Laboratory results published in PubChem BioAssay AID270 (DTP/NCI, 2004).
Several values for one entry are separate records, joined by “and”; a condition that tells them apart may be missing. Equal values may be shown once. Results filed as inconclusive are left out.

Test system: BDF1 mice, s.c. Lewis lung carcinoma, T/C %
Experiment: NCI In Vivo Anticancer Drug Screen. Data for tumor model Lewis Lung Carcinoma (subcutaneous) in B6D2F1 (BDF1) mice
Procedure, shortened: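 Antitumor effect in vivo is scored from survival or tumor burden, reported as treated relative to vehicle controls.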

C[C@]12CC[C@H]3[C@@H](CC[C@]4(O)C[C@@H](O)CC[C@]34C=O)[C@@]1(O)CC[C@@H]2C1=CC(=O)OC1
T/C (endpoint: median survival time, dose: 3.12 mg/kg/injection, schedule: Q01DX009 (ip), vehicle: Klucel (hydroxypropylcellulose) (HPC), higher = longer survival): 87 % of control | T/C (endpoint: median survival time, dose: 12.5 mg/kg/injection, schedule: Q01DX009 (ip), vehicle: Klucel (hydroxypropylcellulose) (HPC), higher = longer survival): 113 % of control | T/C (endpoint: median survival time, dose: 25.0 mg/kg/injection, schedule: Q01DX009 (ip), vehicle: Klucel (hydroxypropylcellulose) (HPC), higher = longer survival): 116 % of control

O=C1c2c(Cl)c(Cl)c(Cl)c(Cl)c2C(=O)N1c1nccs1
T/C (endpoint: mean tumor weight, dose: 25.0 mg/kg/injection, schedule: Q01DX011 (ip), vehicle: carboxymethylcellulose (CMC), higher = larger tumour): 62 % of control | T/C (endpoint: mean tumor weight, dose: 50.0 mg/kg/injection, schedule: Q01DX011 (ip), vehicle: carboxymethylcellulose (CMC), higher = larger tumour): 50 % of control

C[C@]12CCC(=O)C=C1CC[C@@H]1[C@@H]2[C@@H](O)C[C@@]2(C)[C@H]1CC[C@]2(O)C(=O)CO
T/C (endpoint: median survival time, dose: 40.0 mg/kg/injection, schedule: Q02DX009 (ip), vehicle: Klucel (hydroxypropylcellulose) (HPC), higher = longer survival): 98 % of control | T/C (endpoint: median survival time, dose: 80.0 mg/kg/injection, schedule: Q02DX009 (ip), vehicle: Klucel (hydroxypropylcellulose) (HPC), higher = longer survival): 96 % of control | T/C (endpoint: median survival time, dose: 160.0 mg/kg/injection, schedule: Q02DX009 (ip), vehicle: Klucel (hydroxypropylcellulose) (HPC), higher = longer survival): 97 % of control | T/C (endpoint: median survival time, dose: 640.0 mg/kg/injection, schedule: Q02DX009 (ip), vehicle: Klucel (hydroxypropylcellulose) (HPC), higher = longer survival): 88 % of control

O=c1ccn(C2OC(CO)C(O)C2O)c(=O)[nH]1 (centres undefined)
T/C (endpoint: median survival time, dose: 0.2 mg/kg/injection, schedule: Q01DX011 (adlb), vehicle: water, higher = longer survival): 97 % of control and 119 % of control | T/C (endpoint: median survival time, dose: 0.6 mg/kg/injection, schedule: Q01DX011 (adlb), vehicle: water, higher = longer survival): 103 % of control | T/C (endpoint: median survival time, dose: 1.0 mg/kg/injection, schedule: Q01DX011 (adlb), vehicle: water, higher = longer survival): 86 % of control | T/C (endpoint: median survival time, dose: 1.5 mg/kg/injection, schedule: Q01DX011 (adlb), vehicle: water, higher = longer survival): 106 % of control | T/C (endpoint: median survival time, dose: 2.0 mg/kg/injection, schedule: Q01DX011 (adlb), vehicle: water, higher = longer survival): 76 % of control and 100 % of control

NC(=S)N/N=C/c1ncccc1O
T/C (endpoint: mean tumor weight, dose: 6.25 mg/kg/injection, schedule: Q01DX011 (ip), vehicle: saline, higher = larger tumour): 99 % of control | T/C (endpoint: mean tumor weight, dose: 12.5 mg/kg/injection, schedule: Q01DX011 (ip), vehicle: saline, higher = larger tumour): 86 % of control | T/C (endpoint: mean tumor weight, dose: 25.0 mg/kg/injection, schedule: Q01DX011 (ip), vehicle: saline, higher = larger tumour): 61 % of control | T/C (endpoint: mean tumor weight, dose: 50.0 mg/kg/injection, schedule: Q01DX011 (ip), vehicle: saline, higher = larger tumour): 31 % of control | T/C (endpoint: mean tumor weight, dose: 100.0 mg/kg/injection, schedule: Q01DX011 (ip), vehicle: saline, higher = larger tumour): 1 % of control
